Assay results taken from US20190367448A1, “TREATMENT OF SLEEP-WAKE DISORDERS” (SK Biopharmaceuticals Co., Ltd., priority 2005, published 2019).

Assays:
Mice = assay: Spontaneous Locomotor Activity in Mice and Rats model (mice); format: in vivo, mouse
Rats = assay: Spontaneous Locomotor Activity in Mice and Rats model (rats); format: in vivo, rat
[1] = system: male adult Sprague Dawley rats; assay: Sleep-wake organization in rats, polysomnographic recording (EEG, EOG, EMG, body movement) for 16 hours after acute i.p. administration; format: in vivo, rat; conditions: rats; for Duration (min) Active wake / Duration (min) Deep sleep / Duration (min) Light sleep / Duration (min) Passive wake / Duration (min) REM sleep / Duration (min) intermediate stage / ISWS/TST (%) / Latency (min) ISWS / Latency (min) REM sleep / Latency (min) dSWS / REMS/TST (%) / Shifts (number) Shift from ISWS to AW / Shifts (number) Shift from ISWS to PW / Shifts (number) Shift from REMS to AW / Shifts (number) Shift from REMS to PW / Shifts (number) Shift from dSWS to AW / Shifts (number) Shift from dSWS to PW / Total sleep time TST / dSWS/TST (%): 16 hours recording period
[2] = 3 mg/kg i.p., 16 hours recording
[3] = 10 mg/kg i.p., first 90 minutes of the recording period
[4] = 30 mg/kg i.p., 16 hours recording
[5] = 30 mg/kg i.p., vs vehicle, 16-h post-injection period

SMILES: NC(=O)OCC(N)Cc1ccccc1 [R228060, (R)-(beta-amino-benzenepropyl) carbamate]
- Spontaneous Locomotor Activity (Mice): stimulant or energizing effects
- Spontaneous Locomotor Activity (Rats): stimulant or energizing effects
- increased drive to wakefulness from deep sleep [1, 2]: +15%
- increased drive to wakefulness from light sleep [1, 2]: +46%
- Duration (min) Active wake ([1]; 3 mg/kg i.p.): 290.0 min
- Duration (min) Deep sleep ([1]; 3 mg/kg i.p.): 125.0 min
- Duration (min) Light sleep ([1]; 3 mg/kg i.p.): 374.7 min
- Duration (min) Passive wake ([1]; 3 mg/kg i.p.): 79.5 min
- Duration (min) REM sleep ([1]; 3 mg/kg i.p.): 84.0 min
- Duration (min) intermediate stage ([1]; 3 mg/kg i.p.): 2.9 min
- ISWS/TST (%) ([1]; 3 mg/kg i.p.): 64.3 ± 3.3%
- Latency (min) ISWS ([1]; 3 mg/kg i.p.): 15.6 ± 4.1 min
- Latency (min) REM sleep ([1]; 3 mg/kg i.p.): 66.0 ± 11.8 min
- Latency (min) dSWS ([1]; 3 mg/kg i.p.): 42.0 ± 8.5 min
- REMS/TST (%) ([1]; 3 mg/kg i.p.): 14.4 ± 1.0%
- Shifts (number) Shift from ISWS to AW ([1]; 3 mg/kg i.p.): 217.8 number
- Shifts (number) Shift from ISWS to PW ([1]; 3 mg/kg i.p.): 78.1 number
- Shifts (number) Shift from REMS to AW ([1]; 3 mg/kg i.p.): 78.0 number
- Shifts (number) Shift from REMS to PW ([1]; 3 mg/kg i.p.): 3.7 number
- Shifts (number) Shift from dSWS to AW ([1]; 3 mg/kg i.p.): 9.7 number
- Shifts (number) Shift from dSWS to PW ([1]; 3 mg/kg i.p.): 6.6 number
- Total sleep time TST ([1]; 3 mg/kg i.p.): 586.6 ± 20.0 min
- dSWS/TST (%) ([1]; 3 mg/kg i.p.): 20.8 ± 3.8%
- change in total time spent in light sleep ([1]; 3 mg/kg, vs vehicle, 16 hours recording): +26%
- increase in shifts from REM sleep towards active wakefulness ([1]; 10 mg/kg i.p., 16 hours recording): +16%
- Duration (min) Active wake ([1]; 10 mg/kg i.p.): 305.5 min
- Duration (min) Deep sleep ([1]; 10 mg/kg i.p.): 104.0 min
- Duration (min) Light sleep ([1]; 10 mg/kg i.p.): 366.6 min
- Duration (min) Passive wake ([1]; 10 mg/kg i.p.): 73.4 min
- Duration (min) REM sleep ([1]; 10 mg/kg i.p.): 102.3 min
- Duration (min) intermediate stage ([1]; 10 mg/kg i.p.): 5.2 min
- ISWS/TST (%) ([1]; 10 mg/kg i.p.): 63.5 ± 2.7%
- Latency (min) ISWS ([1]; 10 mg/kg i.p.): 30.4 ± 7.9 min
- Latency (min) REM sleep ([1]; 10 mg/kg i.p.): 87.5 ± 14.5 min
- Latency (min) dSWS ([1]; 10 mg/kg i.p.): 127.2 ± 67.1 min
- REMS/TST (%) ([1]; 10 mg/kg i.p.): 17.8 ± 1.0%
- Shifts (number) Shift from ISWS to AW ([1]; 10 mg/kg i.p.): 204.5 number
- Shifts (number) Shift from ISWS to PW ([1]; 10 mg/kg i.p.): 84.4 number
- Shifts (number) Shift from REMS to AW ([1]; 10 mg/kg i.p.): 94.1 number
- Shifts (number) Shift from REMS to PW ([1]; 10 mg/kg i.p.): 8.9 number
- Shifts (number) Shift from dSWS to AW ([1]; 10 mg/kg i.p.): 4.2 number
- Shifts (number) Shift from dSWS to PW ([1]; 10 mg/kg i.p.): 12.5 number
- Total sleep time TST ([1]; 10 mg/kg i.p.): 578.1 ± 22.6 min
- dSWS/TST (%) ([1]; 10 mg/kg i.p.): 17.7 ± 3.1%
- deep sleep duration [1, 3]: significant decrease
- time spent in active wakefulness [1, 3]: increase
- change in total time spent in light sleep ([1]; 10 mg/kg, vs vehicle, 16 hours recording): +24%
- overall profile of effects compared with amphetamine at 1 mg/kg (effect pattern, size and duration) ([1]; 30 mg/kg): remarkably similar
- rebound effect (increase in time spent in deep sleep), hours following administration ([1]; 30 mg/kg): 4 to 10 h
- mean durations of the sleep wake states (active wakefulness, passive wakefulness, light sleep, REM sleep) ([1]; 30 mg/kg i.p.): not modified
- change in number of REM sleep epochs [1, 4]: −24%
- change in number of active wake epochs [1, 4]: +19%
- change in number of light sleep epochs [1, 4]: −23%
- change in number of passive wakefulness epochs [1, 4]: −30%
- Duration (min) Active wake ([1]; 30 mg/kg i.p.): 371.6 min
- Duration (min) Deep sleep ([1]; 30 mg/kg i.p.): 214.9 min
- Duration (min) Light sleep ([1]; 30 mg/kg i.p.): 235.8 min
- Duration (min) Passive wake ([1]; 30 mg/kg i.p.): 57.3 min
- Duration (min) REM sleep ([1]; 30 mg/kg i.p.): 72.9 min
- Duration (min) intermediate stage ([1]; 30 mg/kg i.p.): 4.0 min
- ISWS/TST (%) ([1]; 30 mg/kg i.p.): 44.9 ± 2.9%
- Latency (min) ISWS ([1]; 30 mg/kg i.p.): 73.6 ± 25.7 min
- Latency (min) REM sleep ([1]; 30 mg/kg i.p.): 251.8 ± 32.0 min
- Latency (min) dSWS ([1]; 30 mg/kg i.p.): 174.6 ± 12.3 min
- REMS/TST (%) ([1]; 30 mg/kg i.p.): 13.7 ± 1.3 %
- Shifts (number) Shift from ISWS to AW ([1]; 30 mg/kg i.p.): 221.9 number
- Shifts (number) Shift from ISWS to PW ([1]; 30 mg/kg i.p.): 74.2 number
- Shifts (number) Shift from REMS to AW ([1]; 30 mg/kg i.p.): 65.1 number
- Shifts (number) Shift from REMS to PW ([1]; 30 mg/kg i.p.): 4.1 number
- Shifts (number) Shift from dSWS to AW ([1]; 30 mg/kg i.p.): 8.7 number
- Shifts (number) Shift from dSWS to PW ([1]; 30 mg/kg i.p.): 17.6 number
- Total sleep time TST ([1]; 30 mg/kg i.p.): 527.0 ± 7.9 min
- dSWS/TST (%) ([1]; 30 mg/kg i.p.): 39.2 ± 2.9 %
- active wakefulness ([1]; 30 mg/kg i.p., first 3 hours following the administration): significant enhancement
- change in total time spent in REM sleep [1, 5]: −25%
- change in total time spent in active wakefulness [1, 5]: +19%
- change in total time spent in light sleep [1, 5]: −20%
- change in total time spent in passive wakefulness [1, 5]: −29%
- active wakefulness at the expense of time spent in light sleep, deep sleep and REM sleep ([1]; 30 mg/kg, first 3 to 4 hours after the administration): strongly increased
- changes in vigilance states ([1]; 3 and 10 mg/kg): Minor changes
- duration of central activity ([1]; after intraperitoneal injection): at least 4 hours
- peak in effect, time post administration ([1]; i.p.): around 2 hours
- onset of activity ([1]; i.p., time following administration): ~30 min
